In patent publication US20260070951A1, “MICROPAKINE K2 ANTIMICROBIAL POLYPEPTIDE, COMPOSITION COMPRISING IT AND USE FOR TREATING BACTERIAL INFECTIONS” (priority 2022, published 2026):

Columns and labels:
Experiment in all cases: Inhibition zone test of compositions on Mueller Hinton lawn
Type in all cases: cell-based
B. cereus = conditions: MPK2 200 AU/mL, 24 hours
Experimental: (§1) Different compositions comprising the MicroPacin K2 polypeptide were prepared in different vehicles: 10% w/v methanol, 10% w/v glycerol, 0.5% w/v polyethylene glycol, and water. In the case of the MicroPacin K2 polypeptide, it was used at a concentration of 200 AU/mL in each composition.
(§2) A 5 μL aliquot of each of the prepared compositions was taken and added to a plate with Mueller Hinton medium containing the sensitivity indicator bacteria, previously seeded in the form of a lawn. The plates were then incubated for 24 hours, and the antibacterial activity of the compositions was observed according to the appearance and size of the inhibition zone. This test, in turn, was performed under the same conditions with the commercial bacteriocin Nisin as a comparator agent, which is considered a gold standard bacteriocin, for being approved by the FDA (Food and Drug Administration).
(§3) In this example, the antibacterial effect of compositions comprising the polypeptide MicroPacin K2 and an additional antibacterial agent, including nisin (5,000 AU/mL), ampicillin (0.01 μg/mL), and tetracycline (0.05 μg/mL), is evaluated. The assay was performed using distilled water as the vehicle for the composition. The final concentration of MicroPacin K2 in the compositions evaluated was 200 AU/mL.

E. coli O157:H7 = conditions: for Zone of growth inhibition: MPK2 200 AU/mL, 24 hours
Experimental: as §1, §2, §3

S. saprophyticus = conditions: MPK2 200 AU/mL, 24 hours
Experimental: as §1, §2, §3

C. freundii = conditions: MPK2 200 AU/mL, 24 hours
Experimental: as §1, §2, §3

S. aureus = conditions: MPK2 200 AU/mL, 24 hours
Experimental: as §1, §2, §3

E. coli DH5α = conditions: MPK2 200 AU/mL, 24 hours
Experimental: as §1, §2, §3

S. sonnei = conditions: for Zone of growth inhibition: S. sonnei, MPK2 200 AU/mL, 24 hours
Experimental: as §1, §2, §3

L. monocytogenes = conditions: MPK2 200 AU/mL, 24 hours
Experimental: as §1, §2, §3

## Nisin [reference compound]
B. cereus; vehicle Glycerol 10%
  Zone of growth inhibition: 9.0 mm
B. cereus; vehicle H2O
  Zone of growth inhibition: 8.0 mm
B. cereus; vehicle Methanol 10%
  Zone of growth inhibition: 8.0 mm
B. cereus; vehicle PEG 0.5%
  Zone of growth inhibition: 9.0 mm
E. coli O157:H7; compositions
  Inhibition of growth (inhibition halo): not able to inhibit their growth
E. coli O157:H7; vehicle Glycerol 10%
  Zone of growth inhibition: 0 mm
E. coli O157:H7; vehicle H2O
  Zone of growth inhibition: 0 mm
E. coli O157:H7; vehicle Methanol 10%
  Zone of growth inhibition: 0 mm
E. coli O157:H7; vehicle PEG 0.5%
  Zone of growth inhibition: 0 mm
S. saprophyticus; vehicle Glycerol 10%
  Zone of growth inhibition: 10.0 mm
S. saprophyticus; vehicle H2O
  Zone of growth inhibition: 10.0 mm
S. saprophyticus; vehicle Methanol 10%
  Zone of growth inhibition: 10.0 mm
S. saprophyticus; vehicle PEG 0.5%
  Zone of growth inhibition: 9.0 mm
C. freundii; vehicle Glycerol 10%
  Zone of growth inhibition: 8.0 mm
C. freundii; vehicle H2O
  Zone of growth inhibition: 8.0 mm
C. freundii; vehicle Methanol 10%
  Zone of growth inhibition: 8.0 mm
C. freundii; vehicle PEG 0.5%
  Zone of growth inhibition: 7.0 mm
S. aureus; vehicle Glycerol 10%
  Zone of growth inhibition: 9.0 mm
S. aureus; vehicle H2O
  Zone of growth inhibition: 9.0 mm
S. aureus; vehicle Methanol 10%
  Zone of growth inhibition: 8.0 mm
S. aureus; vehicle PEG 0.5%
  Zone of growth inhibition: 8.0 mm
E. coli DH5α; vehicle Glycerol 10%
  Zone of growth inhibition: 8.0 mm
E. coli DH5α; vehicle H2O
  Zone of growth inhibition: 8.0 mm
E. coli DH5α; vehicle Methanol 10%
  Zone of growth inhibition: 8.0 mm
E. coli DH5α; vehicle PEG 0.5%
  Zone of growth inhibition: 8.0 mm
S. sonnei; vehicle Glycerol 10%
  Zone of growth inhibition: 0 mm
S. sonnei; vehicle H2O
  Zone of growth inhibition: 0 mm
S. sonnei; vehicle Methanol 10%
  Zone of growth inhibition: 0 mm
S. sonnei; vehicle PEG 0.5%
  Zone of growth inhibition: 0 mm
S. sonnei; Shigella sonnei, compositions
  Inhibition of growth (inhibition halo): not able to inhibit their growth
L. monocytogenes; vehicle Glycerol 10%
  Zone of growth inhibition: 9.0 mm
L. monocytogenes; vehicle H2O
  Zone of growth inhibition: 9.0 mm
L. monocytogenes; vehicle Methanol 10%
  Zone of growth inhibition: 9.0 mm
L. monocytogenes; vehicle PEG 0.5%
  Zone of growth inhibition: 9.0 mm
